The values that follow come from US6887904B2, “Substituted arylcycloalkanes, compositions containing them and use thereof” (Aventis Pharma S. A., priority 2001, dated 2005).

For one test, the system named is HeLa cells. The experiment in a line: Inhibition of proliferation of HeLa cells ([14C]-thymidine incorporation). In kind it is cell-based, human. The procedure: The proliferation of HeLa cells is assessed by measuring the incorporation of [^14C]-thymidine in the following way. The HeLa cells (epithelial tumor cells of human origin) are cultured in a DMEM medium (Gibco) which contains 10% fetal calf serum and antibiotics (1% penicillin, 1% streptomycin). To carry out the proliferation test, the cells are inoculated into 96-well cytostar microplates (Amersham), at a rate of 5 000 cells per well. [^14C]-thymidine (0.1 μCi/well) and the products to be assessed are then added. Variable concentrations of product up to 10 μM are used; the DMSO (solvent used to dissolve the products) should not exceed 0.5% in the medium. After incubation for 48 hours at 37° C., the radioactivity incorporated into the cells is measured by counting the plate in a TRI-LUX counter (Wallac). The IC50 value is defined as the concentration of product which reduces the radioactivity by 50% relative to an untreated control. A product whose IC50 value is less than 1 μM is considered as cytotoxic.

A further test has as its target Tubulin (Sus scrofa, UniProt P02550+P02554). The experiment in a line: Inhibition of tubulin polymerization (turbidimetry). Type of test: biochemical, pig. The settings on record: tubulin 10 μM, 37° C., turbidity at 350 nm. The procedure:
Tubulin is purified from pig brains according to the published methods (Shelanski et al., 1973, Proc. Natl, Acad. Sci. USA, 70, 765-768. Weingarten et al., 1975, Proc. Natl, Acad. Sci. USA, 72, 1858-1862). Briefly, the brains are ground and centrifuged in an extraction buffer. The tubulin, contained in the extract supernatant, is subjected to two successive cycles of polymerization at 37° C. and depolymerization at 4° C., before being separated from the MAPs (Microtubule Associated Proteins) by chromatography on a phosphocellulose P11 column (Whatman). The tubulin thus isolated is more than 95% pure. It is stored in a buffer known as RB/2 30% glycerol, the composition of which is MES-NaOH [2-(N-morpholino)ethanesulfonic acid] 50 mM, pH 6.8; MgCl2 0.25 mM; EGTA 0.5 mM; 30% glycerol (v/v), GTP (guanosine 5′-triphosphate) 0.2 mM. The polymerization of the tubulin into microtubules is monitored by turbidimetry as follows; the tubulin is adjusted to a concentration of 10 μM (1 mg/ml) in the RB/2 30% glycerol buffer, to which is added 1 mM GTP and 6 mM MgCl2. The polymerization is initiated by increasing the temperature from 6° C. to 37° C. in a cuvette with a 1 cm optical pathlength, placed in a Uvikon 931 spectrophotometer (Kontron) equipped with a thermostatically-regulated cuvette holder. The increase in the turbidity of the solution is monitored at 350 nm. The products are dissolved at 10 mM in DMSO and added at variable concentrations (0.5 to 10 μM) to the tubulin solution before polymerization. The IC50 value is defined as the concentration of product which inhibits 50% of the rate of polymerization. A product whose IC50 value is less than or equal to 3 μM is considered as very active.

Test [1] concerns HDMEC cells. The experiment in a line: Detachment effect on HDMEC endothelial cells. In kind it is cell-based, human. As to conditions: treatment for two hours. An excerpt: A test to determine the detachment of endothelial cells was established in order to select the products on the basis of their “in vitro” activity. This test for determining the endothelial cell detachment is characterized in that the endothelial cells, inoculated in plates which are coated at the bottom with a binder, e.g., chosen from gelatin, fibronectin or vitronectin, after culturing, are supplemented with a medium containing the test compound, and the cells are then labeled with a fluorescent substance, the cells which become detached are removed by washing and the fluorescence of the remaining cells is counted in a fluorimeter.
This test consists in measuring the detachment of endothelial cells cultured on substrates based on a binder, e.g., chosen from fibronectin, vitronectin and gelatin. […] The fluorescence of the remaining cells is counted in a fluorimeter. […]
The assessment of the detachment of the endothelial cells in vitro is determined in the following way. […] The fluorescence of the cells which remain attached to the substratum of the well is counted using a fluorimeter, Spectrafluor Plus (Tecan, excitation at 485 nm, and emission at 535 nm). The data are the average of six different samples and are expressed as a percentage of the control (untreated cells). […]
The assessment of the detachment of the endothelial cells in vitro is determined in the following way. […]

The test system of test [2] is HDMEC cells. The experiment in a line: Inhibition of proliferation of HDMEC cells. Type of test: cell-based. As to conditions: Homo sapiens.

Molecules are shown by their SMILES. pIC50: −log10 of the molar value.

Tubulin, sequence (P02554 whole entry): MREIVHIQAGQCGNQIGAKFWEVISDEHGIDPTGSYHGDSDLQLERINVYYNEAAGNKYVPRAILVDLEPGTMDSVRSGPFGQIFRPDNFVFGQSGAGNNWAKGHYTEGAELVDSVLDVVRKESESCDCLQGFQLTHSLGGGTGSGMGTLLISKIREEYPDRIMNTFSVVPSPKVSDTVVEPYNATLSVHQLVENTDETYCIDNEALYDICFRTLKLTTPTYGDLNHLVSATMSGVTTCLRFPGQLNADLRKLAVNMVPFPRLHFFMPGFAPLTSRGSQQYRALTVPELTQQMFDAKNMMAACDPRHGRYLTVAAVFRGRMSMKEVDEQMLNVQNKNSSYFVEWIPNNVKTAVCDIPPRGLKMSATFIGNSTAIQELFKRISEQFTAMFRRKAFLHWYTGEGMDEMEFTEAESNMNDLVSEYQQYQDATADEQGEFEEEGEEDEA
Tubulin, sequence (P02550 whole entry): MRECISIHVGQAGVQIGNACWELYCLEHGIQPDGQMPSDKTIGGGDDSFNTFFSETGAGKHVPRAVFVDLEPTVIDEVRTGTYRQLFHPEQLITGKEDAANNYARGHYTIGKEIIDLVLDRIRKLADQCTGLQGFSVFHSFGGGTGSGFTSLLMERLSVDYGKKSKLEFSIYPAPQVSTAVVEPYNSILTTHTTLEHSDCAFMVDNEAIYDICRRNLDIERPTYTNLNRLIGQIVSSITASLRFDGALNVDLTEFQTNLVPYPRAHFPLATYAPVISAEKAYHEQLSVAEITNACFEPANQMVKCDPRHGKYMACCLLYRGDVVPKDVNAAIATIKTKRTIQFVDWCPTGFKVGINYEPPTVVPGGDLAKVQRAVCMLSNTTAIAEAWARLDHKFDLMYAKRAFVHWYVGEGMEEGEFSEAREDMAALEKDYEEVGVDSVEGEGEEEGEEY

As to `COc1ccc(C2CC2C(=O)c2cc(OC)c(OC)c(OC)c2)cc1O` (racemic) [Example 1, [2-(3-Hydroxy-4-methoxyphenyl)cyclopropyl](3,4,5-trimethoxyphenyl)methanone, trans racemate], the pIC50 in the test with HeLa cells (Homo sapiens, HeLa, 48 h) is over 8.72; against Tubulin, 6.00; in the test on HDMEC cells [2], 7.74 to 7.77. In the test on HDMEC cells [1], the “Percentage of detachment of HDMEC cells induced with the compound cited in the example at a concentration of 1 μM” value was 36-37%.

With `COc1cc(C(=O)C2CC2c2ccc(N(C)C)cc2)cc(OC)c1OC` (racemic) [Example 2, [2-(4-Dimethylaminophenyl)cyclopropyl](3,4,5-trimethoxyphenyl)methanone, trans racemate], the pIC50 was 5.84 with HeLa cells (48 hours); 5.87 in the test with HeLa cells (Homo sapiens, HeLa, 48 h); 5.60 at Tubulin; 5.40 in the test on HDMEC cells [2].

In the case of `COc1ccc(C2C3C=CC(C3)C2C(=O)c2cc(OC)c(OC)c(OC)c2)cc1O` (racemic) [Example 3, [2-(3-Hydroxy-4-methoxyphenyl)bicyclo[2.2.1]hept-4-enyl](3,4,5-trimethoxyphenyl)methanone, trans racemate], the pIC50 in the test on HeLa cells (Homo sapiens, HeLa, 48 hours) is 5.97 to 6.28; against Tubulin it was 5.35.

Broadly, the pIC50 is the IC50 on a negative log10 scale, so that one unit is a factor of ten.
